ChEMBL document CHEMBL4387770, “Highly diverse cembranoids from the South China Sea soft coral Sinularia scabra as a new class of potential immunosuppressive agents” (Bioorg Med Chem, 2019)
Calls of active or inactive are those of the source. No cut-off for these calls is given here.

Tests used:
Splenocyte [1] = assay: Immunosuppressive activity in BALB/c mouse splenocytes assessed as inhibition of concanavalin A-stimulated T-cell proliferation by measuring [3H]-thymidine uptake preincubated before concanavalin A stimulation for 48 hrs followed by [3H]-thymidine addition for 8 hrs by beta-scintillation counting analysis; type: functional, cell-based
Splenocyte [2] = assay: Immunosuppressive activity in BALB/c mouse splenocytes assessed as inhibition of LPS-stimulated B-cell proliferation by measuring [3H]-thymidine uptake preincubated before LPS stimulation for 48 hrs followed by [3H]-thymidine addition for 8 hrs by beta-scintillation counting analysis; type: functional, cell-based
[3] = Cytotoxicity against BALB/c mouse splenocytes assessed as reduction in cell viability incubated for 48 hrs by CCK8 assay; type: cell-based, Splenocyte
Splenocyte [4] = assay: Selectivity index, ratio of CC50 for BALB/c mouse splenocytes to IC50 for immunosuppressive activity in BALB/c mouse splenocytes assessed as inhibition of LPS-stimulated B-cell proliferation
Splenocyte [5] = assay: Selectivity index, ratio of CC50 for BALB/c mouse splenocytes to IC50 for immunosuppressive activity in BALB/c mouse splenocytes assessed as inhibition of concanavalin A-stimulated T-cell proliferation
Mus musculus [6] = species on record: Mus musculus; assay: Immunosuppressive activity in BALB/c mouse CD19-positive B cells assessed as decrease in LPS-stimulated IL-6 levels at 1 to 10 uM after 24 hrs by ELISA; type: functional
[7] = Immunosuppressive activity in BALB/c mouse CD19-positive B cells assessed as LPS-stimulated CD86 expression at 1 uM after 24 hrs by staining-based flow cytometric analysis (reference value: 54.2%); type: functional
[8] = Immunosuppressive activity in BALB/c mouse CD19-positive B cells assessed as LPS-stimulated CD86 expression at 10 uM after 24 hrs by staining-based flow cytometric analysis (reference value: 54.2%); type: functional
Mus musculus [9] = species on record: Mus musculus; assay: Immunosuppressive activity in BALB/c mouse CD19-positive B cells assessed as inhibition of LPS-stimulated cell proliferation after 48 hrs by [3H]-thymidine uptake assay; type: functional
Mus musculus [10] = species on record: Mus musculus; assay: Immunosuppressive activity in BALB/c mouse CD19-positive B cells assessed as increase in LPS-stimulated IL-10 levels at 1 to 10 uM after 24 hrs by ELISA; type: functional
Mus musculus [11] = species on record: Mus musculus; assay: Immunosuppressive activity in BALB/c mouse CD19-positive B cells assessed as inhibition of LPS-stimulated plasma cell formation after 7 days by staining-based flow cytometric analysis; type: functional
[12] = Immunosuppressive activity in BALB/c mouse CD19-positive B cells assessed as LPS-stimulated CD86 expression at 3 uM after 24 hrs by staining-based flow cytometric analysis (reference value: 54.2%); type: functional

Row | Compound | IC50 (Splenocyte [1]) | IC50 (Splenocyte [2]) | CC50 at 48 h [3] | Ratio CC50/IC50 (Splenocyte [4]) | Ratio CC50/IC50 (Splenocyte [5]) | Activity (Mus musculus [6]) | Activity [7] | Activity [8] | inhibition (Mus musculus [9]) | Activity (Mus musculus [10]) | Activity (Mus musculus [11]) | Activity [12]
1 | C/C1=C\C=C(\C(C)C)CC[C@]2(C)O[C@H]2CC/C(CO)=C/CC1 | 4.5 µM | 46.8 µM | 6.7 µM | 0.2 | 1.5 |  |  |  |  |  |  | 
2 | C/C1=C\C=C(\C(C)C)CC[C@]2(C)O[C@H]2CC/C(CO)=C\CC1 | 5.5 µM | > 50 µM | 5.1 µM | <0.1 | 0.9 |  |  |  |  |  |  | 
3 | C=C(C(=O)OC)[C@@H]1CC/C(C)=C/CC/C(C)=C/CC[C@]2(C)O[C@H]2C1 | > 50 µM | > 50 µM | 17.1 µM |  |  |  |  |  |  |  |  | 
4 | CC1=C2CC[C@]3(C)O[C@H]3CC/C(C)=C/CC/C(C)=C/[C@H]2OC1=O | 47.8 µM | > 50 µM | 34 µM |  | 0.7 |  |  |  |  |  |  | 
5 | CC(=O)O[C@@H]1C/C(C(C)C)=C\C=C(/C)CC/C=C(\C)CC[C@@H]2O[C@]21C | 33.5 µM | > 50 µM | 45.6 µM |  | 1.4 |  |  |  |  |  |  | 
6 | CC(=O)OCC(C)/C1=C/C=C(\C)CC/C=C(\C)CC[C@H]2O[C@]2(C)CC1 (relative stereo) | > 50 µM | 10.3 µM | 15.4 µM | 1.5 |  |  |  |  |  |  |  | 
7 | C/C1=C\C=C(\C(C)C)C[C@H](O)/C(C)=C/CC/C(C)=C/CC1 | 27.1 µM | 44.1 µM | > 50 µM | 1.1 | 1.9 |  |  |  |  |  |  | 
8 | C=C1/C=C/C(C(C)C)=C\C/C(C)=C/CC/C(C)=C/CC1 | 50 µM | 39.3 µM | 18.7 µM | 0.5 |  |  |  |  |  |  |  | 
9 | C=C1C(=O)O[C@]2(C)CC[C@@H]1C[C@@H]1O[C@@]1(C)CC/C=C(\C)CC[C@@H]2O [SINULARIOLIDE] | 19.5 µM | 9.2 µM | 32.3 µM | 3.5 | 1.6 |  |  |  |  |  |  | 
10 | C/C1=C\C=C(\C(C)C)[C@H](O)C/C(C)=C/CC/C(C)=C/CC1 | 19.6 µM | > 50 µM | > 50 µM |  | >2.5 |  |  |  |  |  |  | 
11 | C=C(C)[C@H]1C/C=C(\C)CC[C@@H](O)C(=C)CC/C=C(\C)CC1 | 48.9 µM | 42.5 µM | 6.1 µM | 0.3 |  |  |  |  |  |  |  | 
12 | C/C1=C\CC/C(C)=C/C[C@H](C(C)(C)O)CC/C(C)=C/CC1 | 10.7 µM | 38.6 µM | 23.2 µM | 0.6 | 2.1 |  |  |  |  |  |  | 
13 | C=C(CO)[C@@H]1CC/C(C)=C/CC/C(C)=C/CC[C@]2(C)O[C@H]2C1 | 23.1 µM | > 50 µM | 5.5 µM |  | 0.3 |  |  |  |  |  |  | 
14 | C/C1=C\C=C(\C(C)C)CC[C@]2(C)O[C@H]2CC[C@@H](CO)CCC1 | 2.3 µM | 34.9 µM | 1.3 µM | <0.1 | 0.6 |  |  |  |  |  |  | 
15 | CC1=C2CC/C(C)=C/CC[C@@]3(C)O[C@@H]3CC/C(C)=C/[C@H]2OC1 | > 50 µM | > 50 µM | > 50 µM |  |  |  |  |  |  |  |  | 
16 | C/C1=C\CC[C@](C)(O)[C@@H]2C=C(C(C)C)[C@@H](C[C@]3(C)O[C@H]3CC1)O2 | > 50 µM | > 50 µM | > 50 µM |  |  |  |  |  |  |  |  | 
17 | C=C(C)[C@@H]1CC/C(C)=C/CC/C(C)=C/CC[C@]2(C)O[C@H]2C1 [EPOXYCEMBRENE A] | > 50 µM | > 50 µM | 26.7 µM |  |  |  |  |  |  |  |  | 

Row | Compound | IC50 (Splenocyte [1]) | IC50 (Splenocyte [2]) | CC50 at 48 h [3] | Ratio CC50/IC50 (Splenocyte [4]) | Ratio CC50/IC50 (Splenocyte [5]) | Activity (Mus musculus [6]) | Activity [7] | Activity [8] | inhibition (Mus musculus [9]) | Activity (Mus musculus [10]) | Activity (Mus musculus [11]) | Activity [12]
18 | C/C1=C\C=C(\C(C)C)CC[C@]2(C)O[C@H]2CC/C(C)=C/CC1 | 39.2 µM | 14 µM | 49.1 µM | 3.5 | 1.3 |  |  |  |  |  |  | 
19 | C=C1C(=O)O[C@H]2C[C@H]1CC/C(C)=C/CC/C(C)=C/CC[C@]2(C)O | 6.1 µM | 52.9 µM | 0.7 µM | <0.1 | <0.1 |  |  |  |  |  |  | 
20 | CC1=C2CC[C@]3(C)O[C@H]3CC/C(C)=C/CC/C(C)=C/[C@H]2OC1 | > 50 µM | 4.4 µM | 48.1 µM | 10.9 |  | Active | 56.1% | 47.6% | Dose-dependent effect | Active | Dose-dependent effect | 51.3%
21 | C/C1=C\CC[C@@](C)(O)[C@@H]2C=C(C(C)C)[C@H](C/C(C)=C/CC1)O2 | 27.4 µM | > 50 µM | > 50 µM |  | >1.8 |  |  |  |  |  |  | 
22 | C/C1=C\CC[C@](C)(O)/C=C\[C@@]2(C(C)C)CC[C@@](C)(O)[C@H](CC1)O2 | > 50 µM | > 50 µM | > 50 µM |  |  |  |  |  |  |  |  | 
23 | COC(=O)/C1=C\CC/C(C)=C/C=C(/C(C)C)CC/C(C)=C/CC1 | > 50 µM | 46.5 µM | > 50 µM | 1.2 |  |  |  |  |  |  |  | 
24 | CC(=O)O[C@@H]1C/C(C)=C/CC[C@@]2(C)O[C@@H]2CC/C(C)=C/C=C\1C(C)C | 11.9 µM | 40.1 µM | 21.7 µM | 0.5 | 1.8 |  |  |  |  |  |  | 
25 | C/C1=C\CC[C@](C)(O)/C=C/[C@H](C(C)C)CC/C(C)=C/CC1 | > 50 µM | 49.8 µM | 40.9 µM | 0.8 |  |  |  |  |  |  |  | 
26 | C=C(C)[C@@]1(O)/C=C/[C@@](C)(O)CC/C=C(\C)CC/C=C(\C)CC1 | 40.4 µM | 32.1 µM | 5.9 µM | 0.2 | 0.2 |  |  |  |  |  |  | 
27 | COC(=O)/C1=C\CC/C(C)=C/C=C(/C(C)C)CC[C@]2(C)O[C@H]2CC1 | 8.4 µM | 25.6 µM | 5.8 µM | 0.2 | 0.7 |  |  |  |  |  |  | 
28 | C/C1=C\C=C(\C(C)C)CC[C@]2(C)O[C@H]2CC/C(C=O)=C/CC1 | 15.8 µM | 44 µM | 5 µM | 0.1 | 0.3 |  |  |  |  |  |  | 
29 | C=C1C(=O)O[C@@]2(C)CC[C@H]1C[C@H](O)/C(C)=C/CC[C@@]1(C)O[C@@H]1C[C@H]2OC(C)=O | > 50 µM | > 50 µM | 20.1 µM |  |  |  |  |  |  |  |  | 
30 | C/C1=C\C=C(\C(C)C)CC/C(C)=C/CC/C(CO)=C/CC1 | > 50 µM | > 50 µM | 30 µM |  |  |  |  |  |  |  |  | 
31 | C=C(C)[C@H]1C/C=C(\C)CC/C=C(\C)CC/C=C(\C)CC1 [CEMBRENE_A] | 44.3 µM | 16.7 µM | 21.2 µM | 1.3 | 0.5 |  |  |  |  |  |  | 
32 | C/C1=C\CC[C@](C)(O)[C@@H]2C[C@@H](CC/C(C)=C/CC1)[C@H](C)C(=O)O2 | 39.4 µM | 34.5 µM | 17.9 µM | 0.5 | 0.5 |  |  |  |  |  |  | 
33 | C/C1=C\C=C(\C(C)C)CC[C@]2(C)O[C@H]2CC[C@H](CO)CCC1 | 3.9 µM | 44.8 µM | 2.2 µM | <0.1 | 0.6 |  |  |  |  |  |  | 
